Test results reported in paper PMC4138103 (PLoS ONE, 2014).
Where two headings read alike, the source gives them in different places.

How the values were obtained:
[1] = system: Sprague-Dawley rats; parameters: method as in Roos et al., 2011; conditions: group mean, ref Roos et al., 2011, cited from earlier work
[2] = system: Sprague-Dawley rats; assay: Histopathology; type: in vivo, Rattus norvegicus; conditions: for Emax: Rattus norvegicus; for Large thyroid follicles (%), CED / Large thyroid follicles (%), CED-L: total dose based; for Adrenal zona fasciculata hypertrophy, CED: semi-quantitative staging; for Pituitary frontal lobe vacuoles or extracellular deposits, incidence: top dose (1700 mg/kg bw)
Description: After fixation, the samples were dehydrated, paraffinized and embedded according to standard sampling and trimming procedures. Sections of 4 µm were stained with hematoxylin and eosin in an automated way. Microscopic observations were done by initial unblinded comparison of control and top dose samples. […] Slide reading for such affected endpoints was refined by blind and/or semi-quantitative scoring.
For immunohistochemistry of TSH and ACTH in the pituitary routine sections were deparaffinized in a graded series of xylol/ethanol. Endogenous peroxidase activity was blocked in a 1/1 methanol/distilled water solution with 1/100 0.3% H2O2 added. […] Subsequent 60 min incubation with purified rabbit polyclonal IgG against rat TSH (Biogenesis), 1/1600 dilution, or against ACTH (Phoenix Pharmaceuticals), 1/1000 dilution, was followed by incubation with a biotinylated anti-rabbit second antibody in the case of TSH (1/200, 30 min; Vector) and avidin-biotin complex (Vector) according to instructions of the manufacturer; both antisera were diluted in the 1% blocking reagent solution, or with a peroxidase conjugated anti-rabbit second antibody (DAKO) in the case of ACTH. Immunostaining was completed with incubation with a standard diaminobenzidine (Sigma) solution for 5 min and counterstaining with hematoxylin (Mayer procedure). Immunostaining was evaluated by comparing the quantity and staining intensity of positive cells between control and high dose samples.
Data were also analyzed using the BMD method, which is based on dose-response modeling of the full data set using a nested family of exponential and Hill models. The analyses were done on data of males and females combined, using sex as a covariate. […] In that case, different Critical Effect Doses (CEDs) and CEDs at the lowest bound of the confidence interval (CED-L) were generated for each sex. If no difference between sexes is detected, a CED and CED-Ls for the combined data is generated. However, this was also done if the curve fits are close, and separate analyses for males and females were then performed manually. CEDs and CED-Ls were calculated at the predefined Critical Effect Size (CES) of 5% (EFSA standard) or 10%.

[3] = system: Nicotinic receptor subunits α4 and β2; assay: Brain [3H]epibatidin binding in exposed rats; type: in vivo, Rattus norvegicus; conditions: males
Description: The membrane containing pellet was homogenized in 15 volumes of 50 mM Tris-HCl buffer at pH 7.4, incubated at 25°C for 30 min, and centrifuged again at 100 000 g. The pellet from the second centrifugation was dissolved in 4 ml 0.32 M sucrose/g brain (v/w), with a final protein concentration of […] and frozen at −40°C.
Nicotinic receptor subunits α4 and β2 were analyzed as above with the following modifications: 8 µl (0.1 mg protein) of the same membrane preparation was incubated with 415–472 µl buffer (50 mM tris-HCL, pH 7.4), 0.1–1 nM [^3H]epibatidin and 0.1 mM (-)nicotine for measuring unspecific binding, to a final volume of 500 µl. […] The samples were incubated with [^3H]epibatidin for 1 h followed by vacuum filtration and scintillation counting.
Samples were vacuum filtrated trough Whatman glassfiber-filters (type GF/B, 25 mm) and washed 3×3 ml ice-cold incubation buffer. To reduce unspecific binding, the filters where pre-wetted in 1% polyetylenimine for 60 min. The filters were placed into a filtration bucket and coupled to a mechanical vacuum pump. After filtration the bucket was disassembled and the filters transferred into plastic tubes and 4 ml filtercount fluid was added. Radioactive binding was measured as disintegration per minute (DPM1) in a scintillation counter (Tri-Carb 3100TR, Perkin Elmer). The analyses were carried out in duplicates

[4] = F, CES 5%, model E4, adipose tissue concentration based
[5] = F, CES 10%, model E4, adipose tissue concentration based
[6] = total dose 1000 mg/kg bw, group mean

SMILES: Clc1cc(Cl)c(-c2cc(Cl)c(Cl)c(Cl)c2Cl)cc1Cl [PCB 180, 2,2′,3′,4,4′,5,5′-heptachlorobiphenyl]
- Body weight ([1]; females, total dose 3 mg/kg bw): 215 g
- Body weight ([1]; females, total dose 10 mg/kg bw): 210 g
- Body weight ([1]; females, total dose 30 mg/kg bw): 213 g
- Body weight ([1]; females, total dose 100 mg/kg bw): 211 g
- Body weight ([1]; females, total dose 300 mg/kg bw): 212 g
- Body weight ([1]; females, total dose 1000 mg/kg bw): 213 g
- Body weight ([1]; females, total dose 1700 mg/kg bw): 208 g
- Body weight ([1]; males, total dose 3 mg/kg bw): 306 g
- Body weight ([1]; males, total dose 10 mg/kg bw): 321 g
- Body weight ([1]; males, total dose 30 mg/kg bw): 324 g
- Body weight ([1]; males, total dose 100 mg/kg bw): 322 g
- Body weight ([1]; males, total dose 300 mg/kg bw): 325 g
- Body weight ([1]; males, total dose 1000 mg/kg bw): 315 g
- Body weight ([1]; males, total dose 1700 mg/kg bw): 310 g
- CED, Large thyroid follicles (%) [2, 4]: 105 µg/g lipid
- CED-L, Large thyroid follicles (%) [2, 4]: 52.7 µg/g lipid
- CED, Large thyroid follicles (%) [2, 5]: 218 µg/g lipid
- CED-L, Large thyroid follicles (%) [2, 5]: 110 µg/g lipid
- Emax ([2]; F, model E4, controls vs high dose according to the fitted model, read-out: Maximum response, Large thyroid follicles (%)): -70.9%
- Emax ([2]; females, controls vs high dose, fitted model, read-out: Large thyroid follicles (%), Maximum response): -71%
- Hyperemia of inner zones of adrenal cortex, CEDL ([2]; females): 2526 mg/kg bw
- Activation of adrenal zona fasciculata, difference in CED values between genders ([2]; females more sensitive, semi-quantitative evaluation): 297 fold
- Large thyroid follicles (%), CED ([2]; females, CES 5%): 22.6 mg/kg bw
- Large thyroid follicles (%), CED-L ([2]; females, CES 5%): 11.6 mg/kg bw
- Large thyroid follicles (%), CED ([2]; females, CES 10%): 131 mg/kg bw
- Large thyroid follicles (%), CED-L ([2]; females, CES 10%): 81.0 mg/kg bw
- Area of large thyroid follicles, CED ([2]; females, adipose tissue concentration based): 105 µg/g lipid
- Thyroid follicle depletion in females, CED (Fig. 7C) ([2]; females, legend says CES 5%): 131
- Thyroid follicle depletion in females, CED-L05 (Fig. 7C) ([2]; females, legend says CES 5%): 80.5
- Thyroid follicle depletion in females, CED-L95 (Fig. 7C) ([2]; females, legend says CES 5%): 213.3
- Adrenal zona fasciculata hypertrophy, CED ([2]; females): 2.0 mg/kg bw
- Pituitary frontal lobe vacuoles or extracellular deposits, incidence ([2]; females): 2/5
- Adrenal zona fasciculata hypertrophy, CED ([2]; males): 594 mg/kg bw
- Pituitary frontal lobe vacuoles or extracellular deposits, incidence ([2]; males): 4/5
- Specific binding of [3H]epibatidin to high or low affinity sites of nicotinic receptor subunit α4/β2 vs controls ([3]; 1000 mg/kg bw): no significant difference
- High affinity nicotinic receptor binding (α4/β2) [3, 6]: 656 DPM1
- Low affinity nicotinic receptor binding (α4/β2) [3, 6]: 1492 DPM1
